The values below come from patent publication US10456376B2, “Use of carbamate compound in order to preventatively treat headaches” (SK BIOPHARMACEUTICALS CO., LTD., priority 2016, dated 2019).

In the experiment the test system is cortical spreading depression (CSD) in rats. Briefly: KCl-induced cortical spreading depression (CSD) animal model of migraine; cerebral blood flow and DC potential measurement. It counts as in vivo, Wistar rats. Conditions: for number of DC-potential events: KCl-induced CSD (FIG. 3). As to the method: All animal experiments were conducted in accordance with the National Institutes of Health (NIH) guidelines for the protection and use of laboratory animals and were approved by the State National Animal Experiment Board of Finland. A total of 48 adult male Wistar rats weighing 250 to 350 g were purchased from Charles River (Germany) and used in this experiment. The animals were raised at ambient temperature (22±1° C.) under an environment in which food and water could be consumed arbitrarily and lighting was controlled (illuminated from 7 am to 8 pm). The animals were divided into the following four groups: • Twelve rats as a negative control group which were intraperitoneally administered 30% PEG400 (5 ml/kg) only, the vehicle of administration, once a day for three weeks • Twelve rats which were intraperitoneally administered the test compound at a dose of 10 mg/kg once a day for three weeks • Twelve rats which were intraperitoneally administered the test compound at a dose of 30 mg/kg once a day for three weeks • Twelve rats as a positive control which were intraperitoneally administered Topiramate at a dose of 80 mg/kg once a day for three weeks
On the last day of the three weeks of administration of the compound and the vehicle (30% PEG 400), the rats were anesthetized with 5% isoflurane (70% N2O and 30% O2 included, dose rate of 300 ml/min) and then were fixed to a stereotactic frame to perform the following surgery. During surgery, the concentration of anesthetic was reduced to 1 to 1.5%, and the rectal temperature was maintained at 37.0±1.0° C. using the homeothermic blanket system.
The skin of the rat head was incised and tilted to both sides, and the right hemisphere of the open skull was drilled using a drill to make three holes, the positions of which are as follows and are indicated by “mm” distance from the bregma; (1) in the occipital cortex, 4.5 at the rear and 2.0 at the lateral; (2) in the parietal cortex, 0.5 at the rear and 2.0 at the lateral; (3) in the frontal cortex, 2 at the front and 2 at the lateral. A laser-Doppler flow probe (Oxyflow, Oxford Optronics, UK) for monitoring the cerebral blood flow (CBF) and an invasive Ag/AgCl electrode for measuring the direct current (DC) potential change were placed on the uninjured dura of the holes drilled in the parietal and frontal cortex and within the cortex, respectively.
The laser-Doppler flow probes were placed in areas with no large pial and dural blood vessels to minimize the interference of the large vessels to the signal. For the measurement of the DC potential difference, a reference electrode was fixed to the neck. The dura on the occipital cortex was carefully removed and care was taken to minimize bleeding. After surgery, the cortical area was restored by washing with saline for 15 minutes. Sphere-shaped (2 mm diameter) cotton wool was wetted with 1 M KCl solution and placed on the pia, and 5 μl of KCl solution was added thereto every 15 minutes to prevent drying. The occurrence of KCl-induced cortical spreading depression (CSD) was measured for 2 hours.
Cerebral blood flow (CBF) and DC potential were continuously monitored starting 5 minutes before KCl treatment. The last drug administration took place 30 minutes before the KCl solution treatment. The parameters analyzed were (1) the number of events of DC potential, the duration of the event, the magnitude of amplitude, and (2) the number of events of cerebral blood flow change and the size of the magnitude of change. […] Statistical analysis was performed using unpaired t-test on StatsDirect statistical software.

Structures are written as SMILES.

For `CC1(C)O[C@@H]2[C@@H](CO[C@@]3(COS(N)(=O)=O)OC(C)(C)O[C@@H]23)O1` [Topiramate, reference compound], the “number of events of increased cerebral blood flow (CBF)” value (80 mg/kg i.p. once a day for three weeks, positive control, KCl-induced CSD (FIG. 1)) is given as “reduction effect”. Further, the “number of DC-potential events” value (80 mg/kg i.p. once a day for three weeks, positive control) is given as “effect shown”.

Consider `NC(=O)O[C@@H](Cn1ncnn1)c1ccccc1Cl` [test compound], for which, for the setting “30 mg/kg i.p. once a day for three weeks, compared to vehicle treated group”, the “number of DC-potential events” value is “significantly reduced”. The “number of events of increased cerebral blood flow (CBF)” value (30 mg/kg i.p. once a day for three weeks, compared to vehicle treated group, KCl-induced CSD measured for 2 hours (FIG. 1)) is “significantly reduced”. Besides, the “degree of cerebral blood flow increase” value (i.p. once a day for three weeks, compared to vehicle, KCl-induced CSD (FIG. 2)) is on record as “no significant effect”. Besides, the “magnitude of amplitude of the DC-potential event” value (i.p. once a day for three weeks, compared to vehicle, KCl-induced CSD (FIG. 4)) is “no significant effect”. For the same molecule, the “duration of the DC-potential event” value (i.p. once a day for three weeks, compared to vehicle, KCl-induced CSD (FIG. 5)) is recorded as “no significant effect”.
